Measurements reported in BindingDB's records for doi:10.1021/jm400638v (The University of Queensland, 2013).
Where a SMILES comes first, the peptide text is derived from it. The star is where a group is joined. Palmitoyl = CCCCCCCCCCCCCCCC(=O)*

Experiment: Agonist activity at […] in human platelets by platelet aggregation assay in presence of SFLLRN

EC50: 8 µM
Structure (SMILES): CCCCCCCCCCCCCCCC(=O)N[C@@H](CCCN=C(N)N)C(=O)N[C@@H](CS)C(=O)N[C@@H](CC(C)C)C(=O)N[C@@H](CO)C(=O)N[C@@H](CO)C(=O)N[C@@H](CO)C(=O)N[C@@H](C)C(=O)N[C@H](C(=O)N[C@@H](C)C(=O)N[C@@H](CC(N)=O)C(=O)N[C@@H](CCCN=C(N)N)C(=O)N[C@@H](CO)C(=O)N[C@@H](CCCCN)C(=O)N[C@@H](CCCCN)C(=O)N[C@@H](CO)C(=O)N[C@@H](CCCN=C(N)N)C(=O)N[C@@H](CC(C)C)C(=O)N[C@@H](Cc1ccccc1)C(=O)O)C(C)C (Palmitoyl-RCLSSSAVANRSKKSRLF-OH)
